Measurements from PubChem BioAssay AID2060910 (Molecular Pharmacology Branch, DTP, NCI, 2025).

Test system: 242566-281-R-J2-PDC complex spheroid viability
Assay: Anticancer human tumor 242566-281-R-J2-PDC patient-derived pancreatic carcinoma cell line growth inhibition [RAS]
Settings: for IC50: curve of first compound; for viability, T/C: stronger effect = lower value
How it was run: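 Multi-cell-type spheroids: tumor cells plus HUVEC endothelial cells and mesenchymal stem cells. RAS-pathway inhibitors were combined with targeted agents, each dosed in half-log steps down from clinical Cmax, or from 10 microM when Cmax was unknown.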
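Note: spheroids exposed to compound for 7 days before readout.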
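Throughout, for viability, T/C: 100% = DMSO vehicle control wells.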

SMILES: CC1(O)CCCC1n1c(=O)c(C(F)F)cc2cnc(NC3CCN(S(C)(=O)=O)CC3)nc21 (centres undefined) + C=CC(=O)N1CCN(c2nc(OCC3CCCN3C)nc3c(F)c(-c4nc(N)cc(C)c4C(F)(F)F)c(Cl)cc23)C(C)C1
- IC50 (second compound 0.00316 µM): > 10 µM
- IC50 (second compound 0.01 µM): > 10 µM
- IC50 (second compound 0.0316 µM): > 10 µM
- IC50 (second compound 0.1 µM): > 10 µM
- IC50 (second compound 0.316 µM): > 10 µM
- IC50 (second compound 1 µM): 9.01 µM
- viability, T/C (second compound 0.00316 µM, first compound 0.0316 µM): 86.6%
- viability, T/C (second compound 0.00316 µM, first compound 0.1 µM): 108%
- viability, T/C (second compound 0.00316 µM, first compound 0.316 µM): 83.9%
- viability, T/C (second compound 0.00316 µM, first compound 1 µM): 108%
- viability, T/C (second compound 0.00316 µM, first compound 3.16 µM): 112%
- viability, T/C (second compound 0.00316 µM, first compound 10 µM): 72.7%
- viability, T/C (second compound 0.01 µM, first compound 0.0316 µM): 99%
- viability, T/C (second compound 0.01 µM, first compound 0.1 µM): 113%
- viability, T/C (second compound 0.01 µM, first compound 0.316 µM): 106%
- viability, T/C (second compound 0.01 µM, first compound 1 µM): 99.5%
- viability, T/C (second compound 0.01 µM, first compound 3.16 µM): 123%
- viability, T/C (second compound 0.01 µM, first compound 10 µM): 68.9%
- viability, T/C (second compound 0.0316 µM, first compound 0.0316 µM): 94.7%
- viability, T/C (second compound 0.0316 µM, first compound 0.1 µM): 106%
- viability, T/C (second compound 0.0316 µM, first compound 0.316 µM): 108%
- viability, T/C (second compound 0.0316 µM, first compound 1 µM): 132%
- viability, T/C (second compound 0.0316 µM, first compound 3.16 µM): 115%
- viability, T/C (second compound 0.0316 µM, first compound 10 µM): 66.6%
- viability, T/C (second compound 0.1 µM, first compound 0.0316 µM): 96.3%
- viability, T/C (second compound 0.1 µM, first compound 0.1 µM): 104%
- viability, T/C (second compound 0.1 µM, first compound 0.316 µM): 97.9%
- viability, T/C (second compound 0.1 µM, first compound 1 µM): 106%
- viability, T/C (second compound 0.1 µM, first compound 3.16 µM): 112%
- viability, T/C (second compound 0.1 µM, first compound 10 µM): 68.2%
- viability, T/C (second compound 0.316 µM, first compound 0.0316 µM): 96.5%
- viability, T/C (second compound 0.316 µM, first compound 0.1 µM): 108%
- viability, T/C (second compound 0.316 µM, first compound 0.316 µM): 89.5%
- viability, T/C (second compound 0.316 µM, first compound 1 µM): 116%
- viability, T/C (second compound 0.316 µM, first compound 3.16 µM): 139%
- viability, T/C (second compound 0.316 µM, first compound 10 µM): 64.5%
- viability, T/C (second compound 1 µM, first compound 0.0316 µM): 92.1%
- viability, T/C (second compound 1 µM, first compound 0.1 µM): 126%
- viability, T/C (second compound 1 µM, first compound 0.316 µM): 110%
- viability, T/C (second compound 1 µM, first compound 1 µM): 98.1%
- viability, T/C (second compound 1 µM, first compound 3.16 µM): 112%
- viability, T/C (second compound 1 µM, first compound 10 µM): 44.2%

SMILES: CC(=O)OC12COC1CC(O)C1(C)C(=O)C(O)C3=C(C)C(OC(=O)C(O)C(NC(=O)OC(C)(C)C)c4ccccc4)CC(O)(C(OC(=O)c4ccccc4)C21)C3(C)C (centres undefined) + CCn1c(-c2cccnc2C(C)OC)c2c3cc(ccc31)N1CCOC(CC(NC(=O)C(C(C)C)N(C)C(=O)C3(F)CCN(C(=O)C#CC(C)(C)N(C)C)CC3)C(=O)N3CCCC(N3)C(=O)OCC(C)(C)C2)C1
- IC50 (second compound 0.000949 µM): < 0.0316 µM
- IC50 (second compound 0.003 µM): < 0.0316 µM
- IC50 (second compound 0.00949 µM): < 0.0316 µM
- IC50 (second compound 0.03 µM): < 0.0316 µM
- IC50 (second compound 0.0949 µM): < 0.0316 µM
- IC50 (second compound 0.3 µM): < 0.0316 µM
- viability, T/C (second compound 0.000949 µM, first compound 0.0316 µM): 47.2%
- viability, T/C (second compound 0.000949 µM, first compound 0.1 µM): 33.6%
- viability, T/C (second compound 0.000949 µM, first compound 0.316 µM): 26.5%
- viability, T/C (second compound 0.000949 µM, first compound 1 µM): 35.8%
- viability, T/C (second compound 0.000949 µM, first compound 3.16 µM): 40.1%
- viability, T/C (second compound 0.000949 µM, first compound 10 µM): 38.8%
- viability, T/C (second compound 0.003 µM, first compound 0.0316 µM): 40.7%
- viability, T/C (second compound 0.003 µM, first compound 0.1 µM): 30.1%
- viability, T/C (second compound 0.003 µM, first compound 0.316 µM): 32.4%
- viability, T/C (second compound 0.003 µM, first compound 1 µM): 35.7%
- viability, T/C (second compound 0.003 µM, first compound 3.16 µM): 40.7%
- viability, T/C (second compound 0.003 µM, first compound 10 µM): 33.9%
- viability, T/C (second compound 0.00949 µM, first compound 0.0316 µM): 46.7%
- viability, T/C (second compound 0.00949 µM, first compound 0.1 µM): 32.3%
- viability, T/C (second compound 0.00949 µM, first compound 0.316 µM): 35.8%
- viability, T/C (second compound 0.00949 µM, first compound 1 µM): 37.7%
- viability, T/C (second compound 0.00949 µM, first compound 3.16 µM): 35.9%
- viability, T/C (second compound 0.00949 µM, first compound 10 µM): 34.9%
- viability, T/C (second compound 0.03 µM, first compound 0.0316 µM): 43.2%
- viability, T/C (second compound 0.03 µM, first compound 0.1 µM): 33.9%
- viability, T/C (second compound 0.03 µM, first compound 0.316 µM): 31.8%
- viability, T/C (second compound 0.03 µM, first compound 1 µM): 34.6%
- viability, T/C (second compound 0.03 µM, first compound 3.16 µM): 29.3%
- viability, T/C (second compound 0.03 µM, first compound 10 µM): 43.4%
- viability, T/C (second compound 0.0949 µM, first compound 0.0316 µM): 36.9%
- viability, T/C (second compound 0.0949 µM, first compound 0.1 µM): 34.5%
- viability, T/C (second compound 0.0949 µM, first compound 0.316 µM): 31.4%
- viability, T/C (second compound 0.0949 µM, first compound 1 µM): 33.2%
- viability, T/C (second compound 0.0949 µM, first compound 3.16 µM): 27.9%
- viability, T/C (second compound 0.0949 µM, first compound 10 µM): 40.3%
- viability, T/C (second compound 0.3 µM, first compound 0.0316 µM): 26.3%
- viability, T/C (second compound 0.3 µM, first compound 0.1 µM): 27%
- viability, T/C (second compound 0.3 µM, first compound 0.316 µM): 26.2%
- viability, T/C (second compound 0.3 µM, first compound 1 µM): 20.2%
- viability, T/C (second compound 0.3 µM, first compound 3.16 µM): 27%
- viability, T/C (second compound 0.3 µM, first compound 10 µM): 29.4%
